# Experimental data published in patent US7848557B2, “Rapid multi-tracer PET imaging systems and methods” (priority 2007, dated 2010).
# Like-named read-outs stand apart in the source and are kept apart here.
# Assays:
# [1] = Arterial blood sampling with octanol separation of freely available and bound fractions; type: in vivo, dogs; details: 10 min. after injection; remaining activity albumin bound
# Experimental: Arterial blood sampling. Blood samples (approximately 0.4-0.5 ml) were drawn from an AV shunt on a schedule similar to the scanning schedule for determination of the arterial input functions. […] Each sample was weighed and counted in a well counter soon after withdrawal, and corrections for radioactive decay were applied to recover time-activity curves for the whole-blood and freely-available arterial input functions for use with compartment modeling. […] While this could potentially complicate measurement of the input function for each tracer; however, at 10 min. after injection the octanol-extractable fraction of PTSM in the blood was only ˜1%, with the remaining activity albumin bound.
# [2] = for k1^Stress / k2^Stress / k3^Stress: adenosine stress; for k1^Rest: ± SD from fit covariance
# Experimental: Data acquisition. PET scans can be performed using, for example, an Advance™ PET scanner (GE Medical Systems, Waukesha, Wis.) operated in 2D mode, though other PET scanners are contemplated within the scope of this invention. Human subjects, when used, were positioned with arms down and a strap was placed across the chest to immobilize the subject and minimize movement artifacts. Transmission scans (^68Ge rod source) were acquired to position the heart in the field of view (2 min) and for attenuation correction (10 min). […] Scans performed during stress were started at the midpoint of a 6 minute adenosine infusion (0.14 mg kg^−1 min^−1) while vital signs including pulse rate, blood pressure and oxygen saturation were assessed by a physician using standard monitoring equipment.
# Dynamic PET data were acquired with a waiting period of about 50-71 min between rest and stress emission scans. Imaging protocols were designed to allow rest and stress components to be added to emulate rapid dual-injection data as further described herein. Rest and stress emission scan data were acquired separately using the following temporal sampling schedule for the first 10 minutes: (12×5 s, 6×10 s, 6×30 s and 5×1 min). For rest scans, this schedule was repeated for another 10 minutes for a total emission scan duration of about 20 minutes. This provided equal duration stress timeframes that could be shifted in time and added to the rest timeframes in order to mimic a rapid dual-injection acquisition while retaining standard single-injection emission scan sequences.
# Data processing. According to one embodiment, images were reconstructed using filtered back-projection with a Hanning window cutoff at 1.56 cycles cm^−1. The 128×128 image matrices had 4.3 mm voxels and a slice thickness of 4.25 mm. Data were pre-corrected for attenuation, scatter and randoms prior to reconstruction, but not for radioactive decay because it was included in the kinetic modeling equations. A reference image for each scan was created by summing up timeframes with steady uptake of tracer in the myocardium and used as a guide for reorienting to cardiac short-axis (SA) images. The SA images for all rest and stress timeframes in each subject were co-registered using a template showing the endocardial and epicardial boundaries. Based on visual comparison of an average mid-ventricular slice from each timeframe, the entire SA image volume was shifted manually to align with the template in the plane perpendicular to the SA of the heart. Co-registration was not performed in timeframes where myocardium and blood pool were indistinguishable.
# Myocardial regions were selected based on a 17-segment model of the American Society of Nuclear Cardiology (Schelbert et al. 2003), known to those of ordinary skill in the art. On each slice of a reference image, endocardial and epicardial boundaries were drawn and the angle of insertion of the right ventricle into the septum was selected as a landmark for division into sectors. The myocardium was divided into one apical region, four sectors in the apical mid-ventricle, six sectors in the basal mid-ventricle and six sectors in the base of the heart. Blood pool regions were drawn manually in each subject with size restricted to limit partial volume effect and spillover of activity from the myocardium. In each subject, the same regions were applied to all co-registered rest and stress timeframes.
# [3] = emulated dual-injection, background subtraction, one typical myocardial region
# [4] = emulated dual-injection, combined modeling, one typical myocardial region
# [5] = separate single-injection, one typical myocardial region
compound,measurement,setting,value
"CNC(=S)NN=CC(C)=NNC(=S)NC.[Cu] [PTSM, copper-pyruvaldehyde-bis[N4-methylthiosemicarbazone]]",octanol-extractable fraction in the blood,[1],roughly 1%
[13NH3] [^13N-ammonia],k1^Stress,[2]; [3],3.50 ± 0.32 mL/min/g
same,k2^Stress,[2]; [3],0.80 ± 0.17
same,k3^Stress,[2]; [3],0.24 ± 0.04
same,k1^Stress,[2]; [4],3.44 ± 0.32 mL/min/g
same,k2^Stress,[2]; [4],0.79 ± 0.17
same,k3^Stress,[2]; [4],0.24 ± 0.04
same,k1^Stress,[2]; [5],3.33 ± 0.27 mL/min/g
same,k2^Stress,[2]; [5],0.69 ± 0.12
same,k3^Stress,[2]; [5],0.20 ± 0.03
same,k1^Rest,"[2]; emulated dual-injection data, background subtraction, one typical myocardial region",0.92 ± 0.05 mL/min/g
same,k1^Rest,"[2]; emulated dual-injection data, combined modeling, 20 min, one typical myocardial region",0.93 ± 0.05 mL/min/g
same,k2^Rest,[2]; [3],0.13 ± 0.04
same,k3^Rest,[2]; [3],0.08 ± 0.07
same,k4^Rest,[2]; [3],0.47 ± 0.02
same,k2^Rest,[2]; [4],0.14 ± 0.04
same,k3^Rest,[2]; [4],0.11 ± 0.06
same,k4^Rest,[2]; [4],0.47 ± 0.02
same,k1^Rest,"[2]; separate single-injection, first 10 min of data, one typical myocardial region (FIG. 5)",0.92 ± 0.05 mL/min/g
same,k2^Rest,[2]; [5],0.13 ± 0.04
same,k3^Rest,[2]; [5],0.08 ± 0.07
same,k4^Rest,[2]; [5],0.47 ± 0.02
